According to article PMC7269481, “ZN148 Is a Modular Synthetic Metallo-β-Lactamase Inhibitor That Reverses Carbapenem Resistance in Gram-Negative Pathogens In Vivo” (Antimicrobial Agents and Chemotherapy, 2020):
≈ marks a conversion by molar mass, not a printed value. Where two headings read alike, the source gives them in different places.

Experiments:
[1] = Solubility measurement in PBS; format: physicochemical
Procedure: The solubility of ZN148 was evaluated in PBS buffer at pH 7.4. Increasing amounts of ZN148 was dissolved in 1.0 ml at room temperature by gentle swirling of the solution in a glass vial. A total of 1.225 g of ZN148 was successfully dissolved in 1.0 ml of PBS buffer, giving a total volume of 1.8 ml. This solution was stable at 4°C for more than 6 weeks without precipitation.

[2] = tested on: 173 MBL-producing E. coli and K. pneumoniae strains; assay: Doripenem and imipenem MIC, MBL-producing E. coli and K. pneumoniae subset; format: cell-based; settings: 50 μM ZN148; 173 strains
Procedure: (§1) MICs of carbapenems alone and in combination with inhibitors were determined by broth microdilution according to the Clinical and Laboratory Standards Institute (CLSI) guidelines ([48]) using either premade plates (TREK Diagnostic Systems/Thermo Fisher Scientific, East Grinstead, United Kingdom) with meropenem or in-house-prepared plates with meropenem, imipenem, and doripenem. ZN148 and other inhibitors were tested at a fixed concentration of 50 μM. Cation-adjusted Mueller-Hinton medium (TREK Diagnostic Systems/Thermo Fisher Scientific; Becton Dickinson, Franklin Lakes, NJ) were used as growth medium. The plates were incubated for 20 h at 37°C. ZN148, ZN222, ZN223, ZN228, and TPA were initially tested in combination with meropenem using two indicator strains: NDM-1-producing K. pneumoniae ([49], [50]) and VIM-2-producing P. aeruginosa ([51]). […]

NDM-1 = target: T1, NDM-1 (Klebsiella pneumoniae, UniProt C7C422); assay: Time-dependent inactivation kinetics of purified NDM-1 (imipenem); format: biochemical
T1 construct: made in house
Procedure: Protein expression and purification of NDM-1 and VIM-2 were performed as previously described ([36], [43], [57]). Stock solutions of purified NDM-1 and VIM-2 were prepared in 50 mM HEPES buffer (pH 7.5; Merck). Inhibition of NDM-1 and VIM-2 were determined for ZN148 and the analogues ZN222, ZN223, and ZN228 at different concentrations of inhibitor after preincubation times of 2, 8, 15, 25, and 32 min in 50 mM HEPES buffer (pH 7.5) supplemented with 1 μM ZnSO4 (Sigma-Aldrich) and bovine serum albumin (Sigma-Aldrich; final concentration, 2 μg/ml) at 25°C. Concentrations of 1 nM VIM-2 and 30 nM NDM-1 were used, and the reaction was initiated by the addition of 30 μM nitrocefin (Merck) for VIM-2 or 100 μM imipenem (Sigma-Aldrich) for NDM-1. The reaction was measured at 482 nm (VIM-2) or […] (NDM-1) in either standard 96-well plates (Thermo Fisher Scientific) for VIM-2 or UV-transparent 96-well plates (Corning, Kennebunk, ME) for NDM-1 at 25°C in a SpectraMax Plus plate reader (Molecular Devices). All of the enzyme and substrate concentrations indicated are the final concentrations in the assay. The enzyme activity as a percentage was calculated based on the initial velocity and compared to the control without inhibitor compound. All tests were performed at least in duplicates.
The observed rate constant (kobs) per inhibitor concentration was calculated from the slope of a semilog plot of the enzyme activity in percent versus preincubation time.
By fitting these values, the irreversible kinetic parameters maximum inactivation rate (kinact) and the inhibitor concentration that produces half-maximal rate of inactivation (KI) were obtained. Finally, the inhibitors were characterized by calculating kinact/KI. Where no saturation curve could be observed, KI and kinact were determined from the linear part of plot 1/kobs versus 1/[I].

E. coli with IMP (n=3) = assay: Meropenem MIC distribution, E. coli with IMP; format: cell-based; settings: MEM alone or +50 µM ZN148
Procedure: as §1

[3] = tested on: Other Enterobacterales with MBLs (n=10); assay: Meropenem MIC distribution, other Enterobacterales with MBLs; format: cell-based; settings: MEM alone or +50 µM ZN148
Procedure: (§2) MICs of carbapenems alone and in combination with inhibitors were determined by broth microdilution according to the Clinical and Laboratory Standards Institute (CLSI) guidelines ([48]) using either premade plates (TREK Diagnostic Systems/Thermo Fisher Scientific, East Grinstead, United Kingdom) with meropenem or in-house-prepared plates with meropenem, imipenem, and doripenem. ZN148 and other inhibitors were tested at a fixed concentration of 50 μM. Cation-adjusted Mueller-Hinton medium (TREK Diagnostic Systems/Thermo Fisher Scientific; Becton Dickinson, Franklin Lakes, NJ) were used as growth medium. The plates were incubated for 20 h at 37°C. ZN148, ZN222, ZN223, ZN228, and TPA were initially tested in combination with meropenem using two indicator strains: NDM-1-producing K. pneumoniae ([49], [50]) and VIM-2-producing P. aeruginosa ([51]). The activity of ZN148 were subsequently tested against two extended strain collections: (i) in combination with meropenem against MBL-producing Enterobacterales (n = 62), MBL-producing P. aeruginosa (n = 9) and MBL- and class D carbapenemase-coproducing Enterobacterales (n = 5) from the strain collection at the Norwegian National Advisory Unit on Detection of Antimicrobial Resistance and (ii) in combination with meropenem, imipenem, and doripenem against globally collected MBL-producing E. coli (n = 87), K. pneumoniae (n = 85), P. aeruginosa (n = 52), and A. baumannii (n = 6), MBL- and class A/D carbapenemase-coproducing E. coli (n = 11), K. pneumoniae (n = 15) and A. baumannii (n = 7) at IHMA Europe, Sàrl, Switzerland. E. coli ATCC 25922 and P. aeruginosa ATCC 27853 were used as quality control strains. The MBL inhibitors were also tested for intrinsic antibacterial activity against the strains.

[4] = tested on: class A carbapenemase (KPC)-producing E. cloacae; assay: Carbapenem MIC, class A carbapenemase-producing E. cloacae; format: cell-based; settings: carbapenem alone or with 50µM ZN148
Procedure: as §2

[5] = tested on: K. pneumoniae co-producing MBLs and class A/D serine carbapenemases; assay: Carbapenem MIC, K. pneumoniae co-producing MBLs and class D carbapenemases; format: cell-based
Procedure: as §2

[6] = tested on: A. baumannii co-producing MBLs and class A/D serine carbapenemases; assay: Carbapenem MIC, A. baumannii co-producing NDM-1 and class D carbapenemases; format: cell-based; settings: carbapenem alone or with 50µM ZN148, one value per strain
Procedure: as §2

E. coli with NDM (n=102) = assay: Meropenem MIC distribution, E. coli with NDM; format: cell-based; settings: MEM alone or +50 µM ZN148
Procedure: as §2

T1 sequence (C7C422 29-270, looked up): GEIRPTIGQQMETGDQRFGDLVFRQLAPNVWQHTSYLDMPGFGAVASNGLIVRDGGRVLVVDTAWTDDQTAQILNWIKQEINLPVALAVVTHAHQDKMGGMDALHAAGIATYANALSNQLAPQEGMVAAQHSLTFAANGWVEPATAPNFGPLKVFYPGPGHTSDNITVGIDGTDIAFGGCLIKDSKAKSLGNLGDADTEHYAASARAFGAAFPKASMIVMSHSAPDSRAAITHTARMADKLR

CN(C[C@H](O)[C@@H](O)[C@H](O)[C@H](O)CO)C(=O)c1ccc(CN(Cc2ccccn2)Cc2ccccn2)nc1 [ZN148]
solubility ([1]; PBS buffer, pH 7.4, aqueous buffer, thermodynamic from solid, in phosphate-buffered saline [PBS]): 1220 mg/mL (≈ 2390 mM)
stability of the solution without precipitation ([1]; at 4°C, 1.225 g in 1.0 ml PBS): more than 6 weeks
amount dissolved in 1.0 ml of PBS buffer ([1]; pH 7.4, room temperature, total volume 1.8 ml): 1.225 g
strains with doripenem MIC reduced to susceptible levels [2]: > 99%
strains with imipenem MIC reduced to susceptible levels [2]: > 99%
kinact (NDM-1): 0.000983 s⁻¹
kinact/KI (NDM-1): 3.17 M⁻¹ s⁻¹

C[C@@H](O)[C@H]1C(=O)N2C(C(=O)O)=C(S[C@@H]3CN[C@H](C(=O)N(C)C)C3)[C@H](C)[C@H]12 [meropenem]
No. of strains with indicated MIC (E. coli with IMP (n=3); MIC 4 mg/L): 1
No. of strains with indicated MIC (E. coli with IMP (n=3); MIC 16 mg/L): 2
No. of strains with indicated MIC ([3]; MIC 4 mg/L): 1
No. of strains with indicated MIC ([3]; MIC 8 mg/L): 2
No. of strains with indicated MIC ([3]; MIC 16 mg/L): 3
No. of strains with indicated MIC ([3]; MIC 32 mg/L): 2
No. of strains with indicated MIC ([3]; MIC ≥64 mg/L): 2
MIC ([4]; Enterobacter cloacae, KPC-2 strains, one value per strain, read-out: MIC): 16 µg/mL
MIC ([4]; Enterobacter cloacae, KPC-3 strain, read-out: MIC): 2 µg/mL
MIC ([4]; KPC-2 strains, one value per strain, listed as MEM): 32 µg/mL
MIC ([5]; NDM + OXA-48-like strains, meropenem alone or with 50µM ZN148, one value per strain): > 64 µg/mL
MIC ([5]; NDM-1 + OXA-181 strain, meropenem alone or with 50µM ZN148): > 64 µg/mL
MIC ([5]; NDM-5 + OXA-181 strains, carbapenem alone or with 50µM ZN148, one value per strain): > 64 µg/mL
MIC ([6]; NDM-1 + OXA-23-like strains): > 64 µg/mL
MIC ([6]; NDM-1 + OXA-24-like, OXA-58-like strains): > 64 µg/mL
No. of strains with indicated MIC (E. coli with NDM (n=102); MIC 1 mg/L): 2
No. of strains with indicated MIC (E. coli with NDM (n=102); MIC 4 mg/L): 6
No. of strains with indicated MIC (E. coli with NDM (n=102); MIC 8 mg/L): 2
No. of strains with indicated MIC (E. coli with NDM (n=102); MIC 16 mg/L): 8
No. of strains with indicated MIC (E. coli with NDM (n=102); MIC 32 mg/L): 19
No. of strains with indicated MIC (E. coli with NDM (n=102); MIC ≥64 mg/L): 65
